Columns and labels:
[1] = test system: MV4-11; assay: Antiproliferative activity against human MV4-11 cells assessed as inhibition of cell growth incubated for 72 hrs by CCK-8 assay; assay type: functional, cell-based; details: MV4-11, 72 h
[2] = target: Cyclin-dependent kinase 9 (Homo sapiens, UniProt P50750)
Description: Inhibition of CDK9 (unknown origin) using ULight 4EBP1 peptide as substrate incubated for 2 hrs by FRET assay

[3] = target: Cyclin-dependent kinase 3 (Homo sapiens, UniProt Q00526); assay: Inhibition of CDK3 (unknown origin) using ULight 4EBP1 peptide as substrate incubated for 2 hrs by FRET assay
[4] = target: Tyrosine-protein kinase Lyn (Homo sapiens, UniProt P07948); assay: Inhibition of human LYN incubated for 1 hr by HTRF assay
[5] = target: T1, Cytoplasmic tyrosine-protein kinase BMX (Homo sapiens, UniProt P51813); assay: Inhibition of human BMX incubated for 1 hr by HTRF assay
T1 sequence (P51813 whole entry): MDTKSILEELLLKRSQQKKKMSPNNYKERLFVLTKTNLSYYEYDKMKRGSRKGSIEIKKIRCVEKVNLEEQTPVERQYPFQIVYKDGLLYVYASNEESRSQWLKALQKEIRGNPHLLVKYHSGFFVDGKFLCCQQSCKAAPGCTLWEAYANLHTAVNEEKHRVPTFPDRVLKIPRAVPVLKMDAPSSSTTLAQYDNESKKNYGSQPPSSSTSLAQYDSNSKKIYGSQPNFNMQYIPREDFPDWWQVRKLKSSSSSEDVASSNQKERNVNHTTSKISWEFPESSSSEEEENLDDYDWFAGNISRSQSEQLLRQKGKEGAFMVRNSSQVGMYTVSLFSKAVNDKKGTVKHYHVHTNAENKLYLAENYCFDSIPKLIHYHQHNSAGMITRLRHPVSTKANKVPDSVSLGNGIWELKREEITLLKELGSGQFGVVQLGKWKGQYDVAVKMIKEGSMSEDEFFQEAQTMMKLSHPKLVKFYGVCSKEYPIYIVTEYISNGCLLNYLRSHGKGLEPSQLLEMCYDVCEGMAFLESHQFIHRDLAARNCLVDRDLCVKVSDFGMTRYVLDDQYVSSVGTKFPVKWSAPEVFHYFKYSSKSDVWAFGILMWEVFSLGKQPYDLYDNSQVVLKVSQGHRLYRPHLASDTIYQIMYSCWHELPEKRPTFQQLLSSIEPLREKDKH

[6] = target: Cyclin-dependent kinase 4 (Homo sapiens, UniProt P11802); assay: Inhibition of CDK4 (unknown origin) using ULight 4EBP1 peptide as substrate incubated for 2 hrs by FRET assay
[7] = target: Insulin-like growth factor 1 receptor (Homo sapiens, UniProt P08069); assay: Inhibition of human IGF1R incubated for 1 hr by HTRF assay
[8] = target: T2, Ephrin type-A receptor 1 (Homo sapiens, UniProt P21709); assay: Inhibition of human EPHA1 incubated for 1 hr by HTRF assay
T2 sequence (P21709 whole entry): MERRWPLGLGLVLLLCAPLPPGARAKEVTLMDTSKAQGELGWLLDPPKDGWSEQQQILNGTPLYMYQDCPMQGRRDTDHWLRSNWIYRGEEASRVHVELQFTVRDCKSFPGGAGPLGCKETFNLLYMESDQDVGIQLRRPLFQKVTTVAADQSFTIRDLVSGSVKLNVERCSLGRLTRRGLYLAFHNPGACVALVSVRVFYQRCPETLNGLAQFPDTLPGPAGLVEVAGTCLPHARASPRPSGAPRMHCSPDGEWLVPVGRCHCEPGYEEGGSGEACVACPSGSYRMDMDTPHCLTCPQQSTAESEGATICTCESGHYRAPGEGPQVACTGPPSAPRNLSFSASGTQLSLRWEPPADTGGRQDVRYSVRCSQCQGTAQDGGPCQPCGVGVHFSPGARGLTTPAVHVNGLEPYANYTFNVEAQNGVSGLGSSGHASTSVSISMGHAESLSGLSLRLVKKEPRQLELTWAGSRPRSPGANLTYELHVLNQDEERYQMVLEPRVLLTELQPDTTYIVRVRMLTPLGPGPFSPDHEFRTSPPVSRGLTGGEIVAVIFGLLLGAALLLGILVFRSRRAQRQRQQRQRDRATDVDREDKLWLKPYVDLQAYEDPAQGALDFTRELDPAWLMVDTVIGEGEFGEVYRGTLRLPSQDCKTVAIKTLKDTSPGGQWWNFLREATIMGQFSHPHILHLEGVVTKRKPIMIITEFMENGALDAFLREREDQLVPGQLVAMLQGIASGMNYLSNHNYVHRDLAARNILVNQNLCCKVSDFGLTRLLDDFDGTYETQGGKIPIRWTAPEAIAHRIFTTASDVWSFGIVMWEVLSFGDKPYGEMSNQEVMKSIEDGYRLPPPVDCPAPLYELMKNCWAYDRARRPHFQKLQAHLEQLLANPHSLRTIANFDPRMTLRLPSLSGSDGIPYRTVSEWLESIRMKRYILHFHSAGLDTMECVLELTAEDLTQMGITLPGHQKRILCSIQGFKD

[9] = target: Tyrosine-protein kinase Blk (Homo sapiens, UniProt P51451); assay: Inhibition of human BLK incubated for 1 hr by HTRF assay
[10] = target: Tyrosine-protein kinase HCK (Homo sapiens, UniProt P08631); assay: Inhibition of human HCK incubated for 1 hr by HTRF assay
[11] = target: Cyclin-dependent kinase 5 (Homo sapiens, UniProt Q00535); assay: Inhibition of CDK5 (unknown origin) using ULight 4EBP1 peptide as substrate incubated for 2 hrs by FRET assay
[12] = target: Cyclin-dependent kinase 2 (Homo sapiens, UniProt P24941); assay: Inhibition of CDK2 (unknown origin) using ULight 4EBP1 peptide as substrate incubated for 2 hrs by FRET assay
[13] = target: Cyclin-dependent kinase 6 (Homo sapiens, UniProt Q00534); assay: Inhibition of CDK6 (unknown origin) using ULight 4EBP1 peptide as substrate incubated for 2 hrs by FRET assay
[14] = target: T3, Tyrosine-protein kinase Tec (Homo sapiens, UniProt P42680); assay: Inhibition of human TEC incubated for 1 hr by HTRF assay
T3 sequence (P42680 whole entry): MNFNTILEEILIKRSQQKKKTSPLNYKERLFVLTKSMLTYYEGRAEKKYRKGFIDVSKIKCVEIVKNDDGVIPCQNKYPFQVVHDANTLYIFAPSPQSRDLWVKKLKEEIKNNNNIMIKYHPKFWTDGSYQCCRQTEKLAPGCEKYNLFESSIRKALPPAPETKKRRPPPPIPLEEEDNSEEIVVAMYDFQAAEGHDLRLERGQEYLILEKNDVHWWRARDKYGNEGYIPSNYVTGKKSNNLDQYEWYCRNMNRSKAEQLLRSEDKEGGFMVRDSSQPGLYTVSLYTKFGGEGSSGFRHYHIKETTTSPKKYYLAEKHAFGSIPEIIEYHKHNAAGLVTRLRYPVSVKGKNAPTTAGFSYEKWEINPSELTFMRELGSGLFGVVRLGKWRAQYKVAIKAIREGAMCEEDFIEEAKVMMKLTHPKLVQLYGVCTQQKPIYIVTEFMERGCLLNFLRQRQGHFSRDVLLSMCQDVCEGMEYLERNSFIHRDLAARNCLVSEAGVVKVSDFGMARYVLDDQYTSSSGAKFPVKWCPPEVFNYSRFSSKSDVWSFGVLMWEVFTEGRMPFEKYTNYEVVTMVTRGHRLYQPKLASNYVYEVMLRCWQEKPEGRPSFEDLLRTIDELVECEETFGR

[15] = target: Tyrosine-protein kinase BTK (Homo sapiens, UniProt Q06187); assay: Inhibition of human recombinant BTK incubated for 1 hr by HTRF assay
[16] = target: Hepatocyte growth factor receptor (Homo sapiens, UniProt P08581); assay: Inhibition of human MET incubated for 1 hr by HTRF assay
[17] = target: T4, Aurora kinase A (Homo sapiens, UniProt O14965); assay: Inhibition of Aurora A (unknown origin)
T4 sequence (O14965 whole entry): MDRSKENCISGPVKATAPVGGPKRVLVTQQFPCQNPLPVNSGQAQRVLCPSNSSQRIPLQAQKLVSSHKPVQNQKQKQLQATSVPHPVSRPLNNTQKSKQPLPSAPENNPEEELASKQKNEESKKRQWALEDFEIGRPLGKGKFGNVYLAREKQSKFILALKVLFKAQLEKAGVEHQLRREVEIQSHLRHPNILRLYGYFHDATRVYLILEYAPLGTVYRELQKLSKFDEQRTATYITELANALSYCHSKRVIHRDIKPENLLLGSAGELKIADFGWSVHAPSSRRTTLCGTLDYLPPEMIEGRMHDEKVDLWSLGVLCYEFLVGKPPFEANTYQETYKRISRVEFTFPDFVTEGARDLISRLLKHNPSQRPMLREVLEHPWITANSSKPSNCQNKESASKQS

[18] = target: Cyclin-dependent kinase 1 (Homo sapiens, UniProt P06493); assay: Inhibition of CDK1 (unknown origin) using ULight 4EBP1 peptide as substrate incubated for 2 hrs by FRET assay
[19] = target: Epidermal growth factor receptor (Homo sapiens, UniProt P00533); assay: Inhibition of human EGFR incubated for 1 hr by HTRF assay
[20] = target: Cyclin-dependent kinase 7 (Homo sapiens, UniProt P50613); assay: Inhibition of CDK7 (unknown origin) using ULight 4EBP1 peptide as substrate incubated for 2 hrs by FRET assay

Compound CN(C)C/C=C/C(=O)Nc1ccc(C(=O)Nc2cccc(Nc3ncc(Cl)c(-c4c[nH]c5ccccc45)n3)c2)cc1 has an IC50 [1] of 30.7 nM.

With COC[C@@H](C)N[C@H]1CC[C@H](Nc2cc(-c3cccc(NCC4(C#N)CCOCC4)n3)c(Cl)cn2)CC1 the IC50 [2] was 3.57 nM.

CC(=O)N[C@H]1CC[C@H](c2ncc(Cl)c(Nc3ccccc3S(=O)(=O)C(C)C)n2)CC1 was tested, and the IC50 [3] was 370 nM, the IC50 [4] was over 10000 nM and the IC50 [5] was over 10000 nM. For the same compound, the IC50 [6] was 645 nM, the IC50 [7] was 2890 nM and the IC50 [8] was 2480 nM. The IC50 [9] was over 10000 nM, the IC50 [10] was over 10000 nM and the IC50 [11] was 3680 nM. The IC50 [12] was 735 nM, the IC50 [13] was 1350 nM and the IC50 [14] was over 10000 nM. For the same compound, the IC50 [15] was over 10000 nM, the IC50 [16] was over 10000 nM and the IC50 [17] was 1320 nM. For the same compound, the IC50 [18] was over 10000 nM and the IC50 [19] was over 10000 nM.

Work on Cn1ncc(-c2nc(N[C@H]3CC[C@H](N)CC3)ncc2Cl)c1CC1CC1 [BTX-A51] yielded an IC50 [20] of 272 nM, an IC50 [1] of 158 nM and an IC50 [2] of 18.6 nM.

Reference: ChEMBL document CHEMBL5579874, “Design, Synthesis, and Biological Evaluation of 2,4-Diaminopyrimidine Derivatives as Potent CDK7 Inhibitors” (ACS Med Chem Lett, 2024)
